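How tested: cells in 96-well plates exposed to compound for 48 hours at five concentrations. GI50 = concentration required for 50% inhibition of growth.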 Activity calls are given as the source filed them. No stated cut-off is given here; in the data, active = GI50 up to about 1.1 µM and inactive = higher.
What was measured:
Assay in all cases: inhibition of tumour cell growth, NCI panel, 48 h
TK-10 = system: TK-10
SNB-75 = system: SNB-75
Hs-578T = system: Hs-578T
U-251 = system: U-251
NCI/ADR-RES = system: NCI/ADR-RES
K562 = system: K562
HOP-92 = system: HOP-92
SK-MEL-5 = system: SK-MEL-5
NCI-H23 = system: NCI-H23
RXF 393 = system: RXF 393
DU-145 = system: DU-145
SNB-19 = system: SNB-19
786-0 = system: 786-0
UO-31 = system: UO-31
SK-MEL-28 = system: SK-MEL-28
HCC 2998 = system: HCC 2998
M14 = system: M14
HCT-116 = system: HCT-116
SW-620 = system: SW-620
MOLT-4 = system: MOLT-4

Structure (SMILES)	GI50 (TK-10)	GI50 (SNB-75)	GI50 (Hs-578T)	GI50 (U-251)	GI50 (NCI/ADR-RES)	GI50 (K562)	GI50 (HOP-92)	GI50 (SK-MEL-5)	GI50 (NCI-H23)	GI50 (RXF 393)	GI50 (DU-145)	GI50 (SNB-19)	GI50 (786-0)	GI50 (UO-31)	GI50 (SK-MEL-28)	GI50 (HCC 2998)	GI50 (M14)	GI50 (HCT-116)	GI50 (SW-620)	GI50 (MOLT-4)
C=CCC1CC(n2cc(C)c(=O)[nH]c2=O)OC1CO[Si](C)(C)C(C)(C)C (stereo not given)	15.8 µM (inactive)	11.8 µM (inactive)	12.6 µM (inactive)	13.6 µM (inactive)	15.1 µM (inactive)	0.163 µM (active)	15.8 µM (inactive)	15.4 µM (inactive)	12.5 µM (inactive)	4.06 µM (inactive)	13.5 µM (inactive)	16.2 µM (inactive)	15.2 µM (inactive)	11.4 µM (inactive)	16.3 µM (inactive)	17.9 µM (inactive)	18.6 µM (inactive)	11.7 µM (inactive)	16.1 µM (inactive)	–
CCCCCCCCCCCCCCCCNc1nc(=O)n(C2CC(O)C(CO)O2)cc1F (stereo not given)	11.9 µM (inactive)	5.06 µM (inactive)	17.4 µM (inactive)	11.7 µM (inactive)	2.86 µM (inactive)	–	10.3 µM (inactive)	11.6 µM (inactive)	4.85 µM (inactive)	13.5 µM (inactive)	10 µM (inactive)	13.7 µM (inactive)	2.88 µM (inactive)	1.4 µM (inactive)	12.7 µM (inactive)	0.071 µM (active)	8.57 µM (inactive)	8.26 µM (inactive)	13 µM (inactive)	4.72 µM (inactive)
O=C(/C=C/c1ccccc1)CCN1CCOCC1	13.7 µM (inactive)	23.4 µM (inactive)	27.1 µM (inactive)	12.9 µM (inactive)	21.6 µM (inactive)	2.15 µM (inactive)	16.8 µM (inactive)	17.5 µM (inactive)	16.2 µM (inactive)	12.7 µM (inactive)	18.8 µM (inactive)	23.8 µM (inactive)	6.85 µM (inactive)	16.6 µM (inactive)	11.4 µM (inactive)	20 µM (inactive)	14.8 µM (inactive)	12.1 µM (inactive)	5.48 µM (inactive)	4.28 µM (inactive)
c1ccc(Nc2nn3c(CCCCCCCCc4nnc5sc(Nc6ccccc6)nn45)nnc3s2)cc1	28.1 µM (inactive)	22.4 µM (inactive)	31.2 µM (inactive)	35.2 µM (inactive)	26.6 µM (inactive)	15.3 µM (inactive)	22.9 µM (inactive)	12.2 µM (inactive)	21.3 µM (inactive)	41.6 µM (inactive)	47.8 µM (inactive)	26 µM (inactive)	23.4 µM (inactive)	22.1 µM (inactive)	27.6 µM (inactive)	60.8 µM (inactive)	16.5 µM (inactive)	24.3 µM (inactive)	29.2 µM (inactive)	14.7 µM (inactive)
COc1cc(S(=O)(=O)Nc2nc(-c3ccc(N4C(=O)C(CC(=O)O)SC4c4ccccc4O)cc3)cs2)ccc1Cl (stereo not given)	> 100 µM (inactive)	> 100 µM (inactive)	> 100 µM (inactive)	45.8 µM (inactive)	> 100 µM (inactive)	38.2 µM (inactive)	31 µM (inactive)	29 µM (inactive)	22.1 µM (inactive)	61.2 µM (inactive)	> 100 µM (inactive)	> 100 µM (inactive)	> 100 µM (inactive)	> 100 µM (inactive)	> 100 µM (inactive)	9.93 µM (inactive)	> 100 µM (inactive)	46.3 µM (inactive)	> 100 µM (inactive)	49.5 µM (inactive)
O=C(NCCCCCCNC(=O)n1cc(F)c(=O)[nH]c1=O)NCCCOCCOCCOCCOCCOCCOCCOCCOCCOCCOCCOCCOCCOCCOCCOCCOCCOCCOCCOCCOCCOCCCNC(=O)C(O)C(O)C(O)C(O)CO (stereo not given)	15.6 µM (inactive)	73.1 µM (inactive)	61.8 µM (inactive)	70.6 µM (inactive)	69.8 µM (inactive)	34.8 µM (inactive)	> 18.4 µM (inactive)	51.9 µM (inactive)	32.8 µM (inactive)	43.2 µM (inactive)	25.4 µM (inactive)	84.7 µM (inactive)	26.6 µM (inactive)	20.9 µM (inactive)	16.3 µM (inactive)	5.66 µM (inactive)	75.3 µM (inactive)	9.57 µM (inactive)	53.8 µM (inactive)	33.9 µM (inactive)
CC(C)C(=O)OCC1CCCN2CCCCC12 (stereo not given)	> 100 µM (inactive)	> 100 µM (inactive)	> 100 µM (inactive)	> 100 µM (inactive)	> 100 µM (inactive)	51.3 µM (inactive)	> 100 µM (inactive)	> 100 µM (inactive)	> 100 µM (inactive)	> 100 µM (inactive)	> 100 µM (inactive)	> 100 µM (inactive)	64.4 µM (inactive)	62.7 µM (inactive)	97.9 µM (inactive)	28.8 µM (inactive)	> 100 µM (inactive)	57.5 µM (inactive)	> 100 µM (inactive)	50.8 µM (inactive)
CC(=O)O[C@@H]1CC2[C@@H](CCC3Cc4nc5c(nc4C[C@@]32C)CC2CC[C@@H]3C(CC[C@@]4(C)C3CC[C@@H]4C(C)CCCC(C)C)[C@@]2(C)C5)C2C[C@@H]3OC4(CCC(C)CO4)C(C)[C@@H]3[C@]21C (stereo not given in full)	33.1 µM (inactive)	2.74 µM (inactive)	21.1 µM (inactive)	84.1 µM (inactive)	30.3 µM (inactive)	> 100 µM (inactive)	25.6 µM (inactive)	> 100 µM (inactive)	> 100 µM (inactive)	19.9 µM (inactive)	> 100 µM (inactive)	65.2 µM (inactive)	53.7 µM (inactive)	–	> 100 µM (inactive)	> 100 µM (inactive)	> 100 µM (inactive)	> 100 µM (inactive)	> 100 µM (inactive)	> 100 µM (inactive)
CCOC(=O)c1cc2c(OC(C)=O)ccc(OC(C)=O)c2s1	6.82 µM (inactive)	2.07 µM (inactive)	1.69 µM (inactive)	2.97 µM (inactive)	2.2 µM (inactive)	–	1.44 µM (inactive)	2.29 µM (inactive)	1.99 µM (inactive)	1.56 µM (inactive)	4.83 µM (inactive)	7.03 µM (inactive)	2.49 µM (inactive)	1.43 µM (inactive)	2.15 µM (inactive)	8.97 µM (inactive)	1.77 µM (inactive)	2.81 µM (inactive)	2.1 µM (inactive)	2.58 µM (inactive)
[N-]=[N+]=CC(=O)CCC(N)C(=O)O (stereo not given)	2.07 µM (inactive)	23.1 µM (inactive)	62.2 µM (inactive)	1.55 µM (inactive)	8.38 µM (inactive)	1.32 µM (inactive)	13.8 µM (inactive)	1.22 µM (inactive)	4.42 µM (inactive)	8.18 µM (inactive)	1.75 µM (inactive)	8.71 µM (inactive)	2.14 µM (inactive)	5.12 µM (inactive)	2.8 µM (inactive)	1.67 µM (inactive)	1.33 µM (inactive)	–	2.31 µM (inactive)	0.721 µM (active)
CN(C)c1ccc(C2CC(c3ccc4ccccc4c3O)=NN2)cc1 (stereo not given)	56.4 µM (inactive)	37 µM (inactive)	37.4 µM (inactive)	33.6 µM (inactive)	30.3 µM (inactive)	25.5 µM (inactive)	29.4 µM (inactive)	36 µM (inactive)	34.5 µM (inactive)	36.1 µM (inactive)	50.4 µM (inactive)	–	21.9 µM (inactive)	30.1 µM (inactive)	63.1 µM (inactive)	69.7 µM (inactive)	31.8 µM (inactive)	31.7 µM (inactive)	32.9 µM (inactive)	20.3 µM (inactive)
COC(=O)[C@H]1[C@H](OC(=O)[C@@H](OC)c2ccccc2)ON2CC[C@@H](OC(=O)c3ccccc3)[C@H]12	> 100 µM (inactive)	29 µM (inactive)	57.9 µM (inactive)	70.1 µM (inactive)	> 100 µM (inactive)	> 100 µM (inactive)	30.3 µM (inactive)	> 100 µM (inactive)	> 100 µM (inactive)	64.4 µM (inactive)	> 100 µM (inactive)	> 100 µM (inactive)	43 µM (inactive)	> 100 µM (inactive)	> 100 µM (inactive)	> 100 µM (inactive)	> 100 µM (inactive)	> 100 µM (inactive)	–	> 100 µM (inactive)
CNc1ccc(C(=O)CC(O)CCC(C)C2OC(=O)CC(O)CC(=O)CC(O)CC(O)CC(O)CC(O)CC3(O)CC(O)C(C(=O)NCCN(C)C)C(CC(OC4OC(C)C(O)C(NC(=O)CN5CCN(C)CC5)C4O)\C=C/C=C\C=C/C=C/C=C/C=C\C=C/C2C)O3)cc1 (stereo not given)	22.5 µM (inactive)	> 100 µM (inactive)	1.91 µM (inactive)	4.86 µM (inactive)	6.9 µM (inactive)	3.2 µM (inactive)	> 100 µM (inactive)	2.81 µM (inactive)	4.54 µM (inactive)	> 100 µM (inactive)	3.22 µM (inactive)	3.38 µM (inactive)	12.9 µM (inactive)	4.34 µM (inactive)	9.27 µM (inactive)	2.55 µM (inactive)	30.8 µM (inactive)	–	3.66 µM (inactive)	4.48 µM (inactive)
COc1ccc(/C=C2\C[C@H]3[C@@H]4CC=C5C[C@@H](OC(C)=O)CC[C@]5(C)[C@H]4CC[C@]3(C)\C2=N\O)cc1OC	–	> 100 µM (inactive)	> 100 µM (inactive)	–	53.5 µM (inactive)	5.19 µM (inactive)	3.89 µM (inactive)	2.71 µM (inactive)	29.2 µM (inactive)	7.4 µM (inactive)	39.4 µM (inactive)	25 µM (inactive)	8.87 µM (inactive)	4.2 µM (inactive)	> 100 µM (inactive)	16.2 µM (inactive)	14.7 µM (inactive)	8.05 µM (inactive)	84.9 µM (inactive)	3.6 µM (inactive)
